From patent US11976083B2, “Inhibitors of peptidylarginine deiminases” (Gilead Sciences, Inc., priority 2020, dated 2024)

Molecular target: T1, human PAD4 (Homo sapiens, UniProt Q9UM07)
T1 construct: human PAD4 (NM_012387), A2-P663, was PCR amplified; His-SUMO (N, cleaved yes); made in house; host or cells: E. coli BL21(DE3)
Assay: In vitro PAD4 BAEE biochemical assay
Conditions: BAEE substrate 3 mM, 5 nM PAD4, 2 mM calcium chloride; geometric mean of multiple experiments
Summary of the method: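 Recombinant human PAD4 (5 nM final) with 2 mM CaCl2 was preincubated with compound 30 min at 25 °C in MOPS buffer pH 7.6, then reacted with 3 mM BAEE for 2 h at 25 °C. After EDTA stop, released ammonia was detected by o-phthalaldehyde/DTT fluorescence (ex 405/em 535 nm); IC50 from four-parameter fit, geometric mean.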

T1 sequence (Q9UM07 2-663): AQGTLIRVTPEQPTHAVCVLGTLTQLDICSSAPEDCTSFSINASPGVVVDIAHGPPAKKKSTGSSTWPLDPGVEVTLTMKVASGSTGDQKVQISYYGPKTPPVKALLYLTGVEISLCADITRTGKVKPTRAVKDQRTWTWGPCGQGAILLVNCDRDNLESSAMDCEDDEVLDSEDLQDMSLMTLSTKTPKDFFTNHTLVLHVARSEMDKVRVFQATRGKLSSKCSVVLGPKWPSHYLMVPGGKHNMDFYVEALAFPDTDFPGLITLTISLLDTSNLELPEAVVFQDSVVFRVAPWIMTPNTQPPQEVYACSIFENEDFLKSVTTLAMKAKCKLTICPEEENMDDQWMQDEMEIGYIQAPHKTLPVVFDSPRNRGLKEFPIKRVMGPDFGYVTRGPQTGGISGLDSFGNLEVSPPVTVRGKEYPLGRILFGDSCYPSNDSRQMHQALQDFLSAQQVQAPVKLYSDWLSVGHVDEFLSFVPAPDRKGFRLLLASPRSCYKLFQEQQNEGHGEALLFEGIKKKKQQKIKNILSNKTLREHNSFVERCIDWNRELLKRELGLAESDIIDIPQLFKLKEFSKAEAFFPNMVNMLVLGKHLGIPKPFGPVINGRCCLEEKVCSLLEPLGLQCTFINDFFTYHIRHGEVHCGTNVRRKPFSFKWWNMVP

| IC50 [nM] | Compound |
| --- | --- |
| 136 | COc1cc(C(=O)N2CC[C@H]3OCCN[C@H]3C2)cc2nc(-c3cc4ccc5cc4n3CCCCCCC3(CC3)C(=O)N[C@@H]5C)n(C)c12 [Example 208, (11~{R})-17-[5-[(4~{a}-{S},8~{a}~{R})-2,3,4,4~{a},5,7,8,8~{a}-octahydropyrido[4,3-b][1,4]oxazine-6-carbonyl]-7-methoxy-1-methyl-benzimidazol-2-yl]-11-methyl-spiro[1,10-diazatricyclo[10.5.2.0^{15,18}]nonadeca-12(19),13,15(18),16-tetraene-8,1′-cyclopropane]-9-one] |
| 365 | COc1cc(C(=O)N2CCC[C@@H](N)C2)cc2nc(-c3cc4ccc5nc4n3CCCCCCOc3ccccc3C(=O)N[C@@H]5C)c(C)n12 [Example 147, (2~{R})-19-[7-[(3~{R})-3-aminopiperidine-1-carbonyl]-5-methoxy-3-methyl-imidazo[1,2-a]pyridin-2-yl]-2-methyl-11-oxa-3,18,24-triazatetracyclo [16.5.2.0^{5,10}.0^{21,25}] pentacosa-1(24),5(10),6,8,19,21(25),22-heptaen-4-one] |
| 109 | COc1cc(C(=O)N[C@H]2CNCC[C@@H]2F)cc2nc(-c3cc4ccc5nc4n3CCCCC[C@H]3C[C@]3(C)C(=O)N[C@@H]5C)n(C)c12 [Example 187, 2-[(2~{R},5~{S},7~{S})-2,5-dimethyl-4-oxo-3,13,19-triazatetracyclo[11.5.2.0^{5,7}.0^{16,20}]icosa-1(19),14,16(20),17-tetraen-14-yl]-~ {N}-[(3~{S},4~{S})-4-fluoro-3-piperidyl]-7-methoxy-1-methyl-benzimidazole-5-carboxamide] |
| 28 | C[C@H]1NC(=O)c2cc(Cl)ncc2CCCCCn2c(-c3nc4cc(C(=O)N5C[C@H](N)[C@@H]6CC[C@H]5C6)cc(F)c4n3C3CC3)cc3ccc1nc32 [Example 672, (2~{R})-17-[5-[(1~{S},4~ {R},5~{R})-4-amino-2-azabicyclo[3.2.1]octane-2-carbonyl]-1-cyclopropyl-7-fluoro-benzimidazol-2-yl]-7-chloro-2-methyl-3,8,16,22-tetrazatetracyclo [14.5.2.0^{5,10}.0^{19,23}] tricosa-1(22),5(10),6,8,17,19 (23),20-heptaen-4-one] |
| 28 | COc1cc(C(=O)N2C[C@H](N)[C@@H]3CC[C@H]2C3)cc2nc(-c3cc4ccc5nc4n3CCCCCC[C@@](C)(F)C(=O)N[C@@H]5C)n(C)c12 [Example 948, (8~{R},11~{R})-17-[5-[(1~{S},4~{R},5~{R})-4-amino-2-azabicyclo[3.2.1]octane-2-carbonyl]-7-methoxy-1-methyl-benzimidazol-2-yl]-8-fluoro-8,11-dimethyl-1,10,19-triazatricyclo[10.5.2.0^ {15,18}]nonadeca-12(19), 13,15(18),16-tetraen-9-one] |
| 37 | COc1cc(C(=O)N2C[C@H](N)[C@@H]3CC[C@H]2C3)cc2nc(-c3cc4ccc5nc4n3CCCCC[C@@H]3C[C@@]3(F)C(=O)N[C@@H]5C)n(C)c12 [Example 447, (2~{R},5~{S},7~{R})-14-[5-[(1~{S},4~{R},5~{R})-4-amino-2-azabicyclo[3.2.1]octane-2-carbonyl]-7-methoxy-1-methyl-benzimidazol-2-yl]-5-fluoro-2-methyl-3,13,19-triazatetracyclo[11.5.2.0^{5,7}.0^{16,20}] icosa-1(19),14,16(20),17-tetraen-4-one] |
| 69 | COc1cc(C(=O)N2CCC[C@@H](N)C2)cc2nc(-c3cc4ccc5nc4n3CCCCCC[C@](C)(C(F)(F)F)C(=O)N[C@@H]5C)n(C)c12 [Example 4, (8~{S},11~{R})-17-[5-[(3~{R})-3-aminopiperidine-1-carbonyl]-7-methoxy-1-methyl-benzimidazol-2-yl]-8,11-dimethyl-8-(trifluoromethyl)-1,10,19-triazatricyclo[10.5.2.0^{15,18}]nonadeca-12(19),13,15(18),16-tetraen-9-one] |
| 28 | C[C@H]1NC(=O)[C@@H]2C[C@H]2CCCC(F)(F)Cn2c(-c3nc4cc(C(=O)N5C[C@H](N)[C@@H]6CC[C@H]5C6)cc(F)c4n3[C@H]3C[C@H]3F)cc3ccc1nc32 [Example 468, (2~{R},5~{R},7~{R})-14-[5-[(1~{S},4~{R},5~{R})-4-amino-2-azabicyclo[3.2.1]octane-2-carbonyl]-7-fluoro-1-[(1~{S},2~{R})-2-fluorocyclopropyl]benzimidazol-2-yl]-11,11-difluoro-2-methyl-3,13,19-triazatetracyclo[11.5.2.0^{5,7}.0^{16,20}] icosa-1(19),14,16(20),17-tetraen-4-one] |
| 76 | COc1cc(C(=O)N2C[C@H](N)CC[C@@H]2C)cc2nc(-c3cc4ccc5nc4n3CCCCCCC(C)(C)C(=O)N[C@@H]5C)n(C)c12 [Example 5, (11~{R})-17-[5-[(2~{S},5~{R})-5-amino-2-methyl-piperidine-1-carbonyl]-7-methoxy-1-methyl-benzimidazol-2-yl]-8,8,11-trimethyl-1,10,19-triazatricyclo[10.5.2.0^{15,18}]nonadeca-12(19),13,15(18),16-tetraen-9-one] |
| 29 | COc1cc(C(=O)N2[C@H]3CC[C@@H]2[C@H](N)C3)cc2nc(-c3cc4ccc5nc4n3C[C@@H]3C[C@H]3COCCC(=O)N[C@@H]5C)n(C)c12 [Example 218, (3~{R},5~{R},12~{R})-18-[5-[(1~{R},2~{R},4~{S})-2-amino-7-azabicyclo[2.2.1]heptane-7-carbonyl]-7-methoxy-1-methyl-benzimidazol-2-yl]-12-methyl-7-oxa-1,11,20-triazatetracyclo[11.5.2.0^{3,5}.0^{16,19}] icosa-13(20),14,16(19),17-tetraen-10-one] |
| 339 | CCC1NC(=O)C(C)(C)CCCCCCn2c(-c3nc4cc(C(=O)N5CC[C@@H](OC)[C@@H](N)C5)cc(OC)c4n3C)cc3ccc1nc32 (stereo partly drawn) [Example 779, 17-[5-[(3~{S),4~{R})-3-amino-4-methoxy-piperidine-1-carbonyl]-7-methoxy-1-methyl-benzimidazol-2-yl]-11-ethyl-8,8-dimethyl-1,10,19-triazatricyclo[10.5.2.0^ {15,18}]nonadeca-12,14,16,18-tetraen-9-one] |
| 43 | COc1cc(C(=O)N[C@H]2CNCC[C@@H]2F)cc2nc(-c3cc4ccc5nc4n3CCCCCC[C@@H](OC)C(=O)N[C@@H]5C)n(C)c12 [Example 621, ~{N}-[(3~{S},4~{S})-4-fluoro-3-piperidyl]-7-methoxy-2-[(8~{R},11~ {R})-8-methoxy-11-methyl-9-oxo-1,10,19-triazatricyclo[10.5.2.0^ {15,18}]nonadeca-12(19),13,15(18),16-tetraen-17-yl]-1-methyl-benzimidazole-5-carboxamide] |
| 18 | C[C@H]1NC(=O)c2c(F)cncc2CCCCCn2c(-c3nc4cc(C(=O)N[C@H]5CNCC[C@@H]5F)c(F)cc4n3C3CC3)cc3ccc1nc32 [Example 355, 1-cyclopropyl-6-fluoro-2-[(2~{R})-6-fluoro-2-methyl-4-oxo-3,8,16,22-tetrazatetracyclo[14.5.2.0^{5,10}.0^{19,23}]tricosa-1(22),5,7,9,17,19(23),20-heptaen-17-yl]~{N}-[(3~{S},4~{S})-4-fluoro-3-piperidyl]benzimidazole-5-carboxamide] |
| 65 | COc1cc(C(=O)N2CCC[C@@H](N)C2)cc2nc(-c3cc4ccc5nc4n3C[C@H]3C[C@@H]3COC(C)CC(=O)N[C@@H]5C)n(C)c12 (stereo partly drawn) [Example 271, (3~{S},5~{S},12~{R})-18-[5-[(3~{R})-3-aminopiperidine-1-carbonyl]-7-methoxy-1-methyl-benzimidazol-2-yl]-8,12-dimethyl-7-oxa-1,11,20-triazatetracyclo[11.5.2.0^{3,5}.0^{16,19}] icosa-13(20),14,16(19),17-tetraen-10-one] |
| 58 | COc1cc(C(=O)N2[C@H]3CC[C@@H]2[C@H](N)C3)cc2nc(-c3cc4ccc5nc4n3C[C@H]3C[C@H]3CCCC(C)(C)C(=O)N[C@@H]5C)n(C)c12 [Example 145, (3~{S},5~{R},12~{R})-18-[5-[(1~{R},2~{R},4~{S})-2-amino-7-azabicyclo[2.2.1]heptane-7-carbonyl]-7-methoxy-1-methyl-benzimidazol-2-yl]-9,9,12-trimethyl-1,11,20-triazatetracyclo[11.5.2.0^{3,5}.0^{16,19}] icosa-13(20),14,16(19),17-tetraen-10-one] |
| 37 | COc1cc(C(=O)N2C[C@H](N)[C@@H]3CC[C@H]2C3)cc2nc(-c3cc4ccc5nc4n3CCCCCC(C)(C)C(=O)N[C@@H]5C)n(C)c12 [Example 443, (10~{R})-16-[5-[(1~{S},4~{R},5~{})-4-amino-2-azabicyclo[3.2.1]octane-2-carbonyl]-7-methoxy-1-methyl-benzimidazol-2-yl]-7,7,10-trimethyl-1,9,18-triazatricyclo[9.5.2.0^{14,17}]octadeca-11(18),12,14(17),15-tetraen-8-one] |
| 72 | COc1cc(C(=O)N2C[C@H](N)[C@@H]3CC[C@H]2C3)cc2nc(-c3cc4ccc5nc4n3CCCCCCC3(CC3)C(=O)N[C@@H]5C)n(C)c12 [Example 445, (11~{R})-17-[5-[(1~{S},4~{R},5~{R})-4-amino-2-azabicyclo[3.2.1]octane-2-carbonyl]-7-methoxy-1-methyl-benzimidazol-2-yl]-11-methyl-spiro[1,10,19-triazatricyclo[10.5.2.0^{15,18}]nonadeca-12(19),13,15(18),16-tetraene-8,1′-cyclopropane]-9-one] |
| 44 | C[C@H]1NC(=O)c2ccccc2CCCCCn2c(-c3nc4cc(C(=O)N[C@H]5CNCC[C@@H]5F)c(F)cc4n3C)cc3ccc1nc32 [Example 593, 6-fluoro-~{N}-[(3~{S},4~ {S})-4-fluoro-3-piperidyl]-1-methyl-2-[(2~{R})-2-methyl-4-oxo-3,16,22-triazatetracyclo[14.5.2.0^ {5,10}.0^{19,23}]tricosa-1(21),5(10),6,8,17, 19,22-heptaen-17-yl] benzimidazole-5-carboxamide] |
